# Patent US10624897B2, “Chlorobenzene substituted azaaryl compounds” (TAIPEI MEDICAL UNIVERSITY, priority 2015, dated 2020)
# Read-outs that look alike come from different tables or passages of the source.
# Experiments:
# RT-112 tumor xenografts = settings: for Tumor growth inhibition (%): i.p., nude mice
# Method: Eight-week-old female athymic nude mice were group-housed in the TMU Laboratory Animal Center (Taipei, Taiwan) under conditions of constant photoperiod (12 h light/12 h dark at 21-0023° C. and 60-85% humidity) with ad libitum access to sterilized food and water. […] Tumors were measured weekly using calipers. Tumor volume (mm3) was calculated from w2×½ (w=width, 1=length in mm of the tumor).
# RT-112 cells = assay: Cell cycle distribution by flow cytometry; assay type: cell-based; settings: 48 h to 72 h, FIG. 3A
# PIM3 = target: T1, PIM3 (Homo sapiens, UniProt Q86V86); assay: Kinase binding assay (Kd)
# T1 construct: made in house; host or cells: E. coli BL21-derived host (T7 phage) or HEK-293
# Method: (§1) Kinase assays. For most assays, kinase-tagged T7 phage strains were prepared in an E. coli host derived from the BL21 strain. E. coli were grown to log-phase and infected with T7 phage and incubated with shaking at 32° C. until lysis. The lysates were centrifuged and filtered to remove cell debris. The remaining kinases were produced in HEK-293 cells and subsequently tagged with DNA for qPCR detection. […] The liganded beads were blocked with excess biotin and washed with blocking buffer (SeaBlock (Pierce), 1% BSA, 0.05% Tween 20, 1 mM DTT) to remove unbound ligand and to reduce non-specific binding. […] All reactions were performed in polystyrene 96-well plates in a final volume of 0.135 ml. […] The kinase concentration in the eluates was measured by qPCR.
# (§2) An 11-point 3-fold serial dilution of each test compound was prepared in 100% DMSO at 100× final test concentration and subsequently diluted to 1× in the assay (final DMSO concentration=1%). Most Kds were determined using a compound top concentration=30,000 nM.
# (§3) Binding constants (Kds) were calculated with a standard dose-response curve using the Hill equation: […]
# (§4) The Hill Slope was set to −1. Curves were fitted using a non-linear least square fit with the Levenberg-Marquardt algorithm.
# TGFBR1 = target: T2, TGFBR1 (Homo sapiens, UniProt P36897); assay: Kinase binding assay (Kd)
# T2 construct: made in house; host or cells: E. coli BL21-derived host (T7 phage) or HEK-293
# Method: as §1, §2, §3, §4
# ZAP70 = target: T3, ZAP70 (Homo sapiens, UniProt P43403); assay: Kinase binding assay (Kd)
# T3 construct: made in house; host or cells: E. coli BL21-derived host (T7 phage) or HEK-293
# Method: as §1, §2, §3, §4
# CSF1R = target: T4, CSF1R (Homo sapiens, UniProt P07333); assay: Kinase binding assay (Kd)
# T4 construct: made in house; host or cells: E. coli BL21-derived host (T7 phage) or HEK-293
# Method: as §1, §2, §3, §4
# RET = target: T5, RET (Homo sapiens, UniProt P07949); assay: Kinase binding assay (Kd)
# T5 construct: made in house; host or cells: E. coli BL21-derived host (T7 phage) or HEK-293
# Method: as §1, §2, §3, §4
# MET = target: T6, MET (Homo sapiens, UniProt P08581); assay: Kinase binding assay (Kd)
# T6 construct: made in house; host or cells: E. coli BL21-derived host (T7 phage) for most kinases, HEK-293 for the rest
# Method: as §1, §2, §3, §4
# EPHA2 = target: T7, EPHA2 (Homo sapiens, UniProt P29317); assay: Kinase binding assay (Kd)
# T7 construct: made in house; host or cells: E. coli BL21-derived host (T7 phage) for most kinases, HEK-293 for the rest
# Method: as §1, §2, §3, §4
# IGF1R = target: T8, IGF1R (Homo sapiens, UniProt P08069); assay: Kinase binding assay (Kd)
# T8 construct: made in house; host or cells: E. coli BL21-derived host (T7 phage) for most kinases, HEK-293 for the rest
# Method: as §1, §2, §3, §4
# PDPK1 = target: T9, PDPK1 (Homo sapiens, UniProt O15530); assay: Kinase binding assay (Kd)
# T9 construct: made in house; host or cells: E. coli BL21-derived host (T7 phage) for most kinases, HEK-293 for the rest
# Method: as §1, §2, §3, §4
# AKT1 = target: T10, AKT1 (Homo sapiens, UniProt P31749); assay: Kinase binding assay (Kd)
# T10 construct: made in house; host or cells: E. coli BL21-derived host (T7 phage) or HEK-293
# Method: as §1, §2, §3, §4
# p38-beta = target: T11, p38-beta (Homo sapiens, UniProt Q15759); assay: Kinase binding assay (Kd)
# T11 construct: made in house; host or cells: E. coli BL21-derived host (T7 phage) for most kinases, HEK-293 for the rest
# Method: as §1, §2, §3, §4
# MEK2 = target: T12, MEK2 (Homo sapiens, UniProt P36507); assay: Kinase binding assay (Kd)
# T12 construct: made in house; host or cells: E. coli BL21-derived host (T7 phage) for most kinases, HEK-293 for the rest
# Method: as §1, §2, §3, §4
# MKNK2 = target: T13, MKNK2 (Homo sapiens, UniProt Q9HBH9); assay: Kinase binding assay (Kd)
# T13 construct: made in house; host or cells: E. coli BL21-derived host (T7 phage) for most kinases, HEK-293 for the rest
# Method: as §1, §2, §3, §4
# DCAMKL1 = target: T14, DCAMKL1 (Homo sapiens, UniProt O15075); assay: Kinase binding assay (Kd)
# T14 construct: made in house; host or cells: E. coli BL21-derived host (T7 phage) or HEK-293
# Method: as §1, §2, §3, §4
# BMPR2 = target: T15, BMPR2 (Homo sapiens, UniProt Q13873); assay: Kinase binding assay (Kd)
# T15 construct: made in house; host or cells: E. coli BL21-derived host (T7 phage) or HEK-293
# Method: as §1, §2, §3, §4
# FLT3 = target: T16, FLT3 (Homo sapiens, UniProt P36888); assay: Kinase binding assay (Kd)
# T16 construct: made in house; host or cells: E. coli BL21-derived host (T7 phage) or HEK-293
# Method: as §1, §2, §3, §4
# BTK = target: T17, BTK (Homo sapiens, UniProt Q06187); assay: Kinase binding assay (Kd)
# T17 construct: made in house; host or cells: E. coli BL21-derived host (T7 phage) or HEK-293
# Method: as §1, §2, §3, §4
# PIM1 = target: T18, PIM1 (Homo sapiens, UniProt P11309); assay: Kinase binding assay (Kd)
# T18 construct: made in house; host or cells: E. coli BL21-derived host (T7 phage) for most kinases, HEK-293 for the rest
# Method: as §1, §2, §3, §4
# CDK9 = target: T19, CDK9 (Homo sapiens, UniProt P50750); assay: Kinase binding assay (Kd)
# T19 construct: made in house; host or cells: E. coli BL21-derived host (T7 phage) or HEK-293
# Method: as §1, §2, §3, §4
# AXL = target: T20, AXL (Homo sapiens, UniProt P30530); assay: Kinase binding assay (Kd)
# T20 construct: made in house; host or cells: E. coli BL21-derived host (T7 phage) or HEK-293
# Method: as §1, §2, §3, §4
# AURKB = target: T21, AURKB (Homo sapiens, UniProt Q96GD4); assay: Kinase binding assay (Kd)
# T21 construct: made in house; host or cells: E. coli BL21-derived host (T7 phage) or HEK-293
# Method: as §1, §2, §3, §4
# [1] = tested on: RT-112, RT4 and T24 cells; assay: MTT assay, bladder cancer cells with different FGFR3 status; assay type: cell-based; settings: 72 h, FIG. 1A
# Method: Cell viability was assessed the MTT assay. […] Data are expressed as means±S.D. (***P<0.001 compares to control group).
# BGJ-398, a known selective inhibitor of FGFR1 to FGFR3, was included as a reference compound. […] The major downstream pathways of FGFRs are MAPK, PI3K/AKT, and PLC-γ. RT-112 cells, which express FGFR3-TACC3, are reportedly unable to activate PLCγ due to a deletion of the last exon of FGFR3.
# T8 sequence (P08069 31-1367): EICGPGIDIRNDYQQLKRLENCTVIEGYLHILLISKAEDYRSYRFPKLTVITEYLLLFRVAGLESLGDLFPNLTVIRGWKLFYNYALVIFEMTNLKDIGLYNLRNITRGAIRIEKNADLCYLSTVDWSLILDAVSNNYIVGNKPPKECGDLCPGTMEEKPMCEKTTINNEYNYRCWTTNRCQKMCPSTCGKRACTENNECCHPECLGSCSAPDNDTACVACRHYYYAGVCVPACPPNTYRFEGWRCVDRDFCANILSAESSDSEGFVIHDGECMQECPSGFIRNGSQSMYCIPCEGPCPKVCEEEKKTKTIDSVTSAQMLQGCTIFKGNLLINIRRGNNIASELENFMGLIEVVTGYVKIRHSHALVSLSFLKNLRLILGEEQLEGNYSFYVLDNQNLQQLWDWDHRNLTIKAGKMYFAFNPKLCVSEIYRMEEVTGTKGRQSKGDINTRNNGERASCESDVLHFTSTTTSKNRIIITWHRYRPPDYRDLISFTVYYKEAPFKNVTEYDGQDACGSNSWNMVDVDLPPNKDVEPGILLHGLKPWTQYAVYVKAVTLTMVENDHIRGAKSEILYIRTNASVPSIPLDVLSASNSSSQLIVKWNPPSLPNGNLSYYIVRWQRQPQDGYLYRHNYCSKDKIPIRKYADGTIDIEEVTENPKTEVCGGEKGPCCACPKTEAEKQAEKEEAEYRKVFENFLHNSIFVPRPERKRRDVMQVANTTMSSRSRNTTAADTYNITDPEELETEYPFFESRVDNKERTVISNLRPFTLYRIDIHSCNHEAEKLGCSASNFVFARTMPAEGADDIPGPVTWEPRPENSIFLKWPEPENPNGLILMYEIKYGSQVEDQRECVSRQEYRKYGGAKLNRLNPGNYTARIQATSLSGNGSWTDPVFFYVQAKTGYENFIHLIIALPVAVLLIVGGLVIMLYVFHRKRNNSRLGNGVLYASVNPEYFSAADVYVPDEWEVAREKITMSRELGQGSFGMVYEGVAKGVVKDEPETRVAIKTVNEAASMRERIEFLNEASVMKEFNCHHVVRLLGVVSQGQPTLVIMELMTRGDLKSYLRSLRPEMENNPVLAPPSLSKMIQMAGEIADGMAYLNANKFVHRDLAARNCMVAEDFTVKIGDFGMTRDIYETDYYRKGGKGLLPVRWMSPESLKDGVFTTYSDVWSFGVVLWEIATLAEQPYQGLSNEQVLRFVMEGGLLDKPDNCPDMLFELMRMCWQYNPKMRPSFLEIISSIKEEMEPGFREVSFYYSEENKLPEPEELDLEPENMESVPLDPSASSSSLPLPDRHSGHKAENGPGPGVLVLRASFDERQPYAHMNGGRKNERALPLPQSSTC
# T3 sequence (P43403 whole entry): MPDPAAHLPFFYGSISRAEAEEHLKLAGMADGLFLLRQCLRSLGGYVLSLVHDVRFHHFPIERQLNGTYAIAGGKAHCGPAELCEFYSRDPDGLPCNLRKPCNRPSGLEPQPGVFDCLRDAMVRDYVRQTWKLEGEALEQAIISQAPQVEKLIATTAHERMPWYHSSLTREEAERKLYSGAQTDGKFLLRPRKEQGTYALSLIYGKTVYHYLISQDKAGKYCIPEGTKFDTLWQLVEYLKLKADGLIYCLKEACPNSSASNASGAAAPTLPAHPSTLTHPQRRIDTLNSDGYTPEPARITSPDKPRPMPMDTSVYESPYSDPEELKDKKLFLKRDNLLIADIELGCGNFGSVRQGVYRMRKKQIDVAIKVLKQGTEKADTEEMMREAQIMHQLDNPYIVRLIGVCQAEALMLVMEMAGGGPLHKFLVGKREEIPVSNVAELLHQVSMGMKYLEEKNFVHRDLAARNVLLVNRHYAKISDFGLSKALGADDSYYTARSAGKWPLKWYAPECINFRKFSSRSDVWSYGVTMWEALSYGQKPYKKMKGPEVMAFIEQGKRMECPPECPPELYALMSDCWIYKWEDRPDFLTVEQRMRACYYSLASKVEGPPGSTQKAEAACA
# T2 sequence (P36897 34-503): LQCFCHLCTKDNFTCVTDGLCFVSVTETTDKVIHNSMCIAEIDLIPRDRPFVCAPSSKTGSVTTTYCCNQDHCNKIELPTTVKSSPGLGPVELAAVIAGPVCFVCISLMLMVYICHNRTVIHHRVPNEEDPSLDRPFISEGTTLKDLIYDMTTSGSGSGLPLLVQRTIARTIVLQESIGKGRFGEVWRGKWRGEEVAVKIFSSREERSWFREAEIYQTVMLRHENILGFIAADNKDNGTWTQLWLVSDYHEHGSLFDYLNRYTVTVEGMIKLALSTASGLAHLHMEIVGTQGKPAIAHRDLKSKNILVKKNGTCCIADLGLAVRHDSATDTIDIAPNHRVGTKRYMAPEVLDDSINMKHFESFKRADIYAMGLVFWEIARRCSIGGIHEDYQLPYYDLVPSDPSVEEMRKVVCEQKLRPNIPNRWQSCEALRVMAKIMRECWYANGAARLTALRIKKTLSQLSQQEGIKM
# T5 sequence (P07949 29-1114): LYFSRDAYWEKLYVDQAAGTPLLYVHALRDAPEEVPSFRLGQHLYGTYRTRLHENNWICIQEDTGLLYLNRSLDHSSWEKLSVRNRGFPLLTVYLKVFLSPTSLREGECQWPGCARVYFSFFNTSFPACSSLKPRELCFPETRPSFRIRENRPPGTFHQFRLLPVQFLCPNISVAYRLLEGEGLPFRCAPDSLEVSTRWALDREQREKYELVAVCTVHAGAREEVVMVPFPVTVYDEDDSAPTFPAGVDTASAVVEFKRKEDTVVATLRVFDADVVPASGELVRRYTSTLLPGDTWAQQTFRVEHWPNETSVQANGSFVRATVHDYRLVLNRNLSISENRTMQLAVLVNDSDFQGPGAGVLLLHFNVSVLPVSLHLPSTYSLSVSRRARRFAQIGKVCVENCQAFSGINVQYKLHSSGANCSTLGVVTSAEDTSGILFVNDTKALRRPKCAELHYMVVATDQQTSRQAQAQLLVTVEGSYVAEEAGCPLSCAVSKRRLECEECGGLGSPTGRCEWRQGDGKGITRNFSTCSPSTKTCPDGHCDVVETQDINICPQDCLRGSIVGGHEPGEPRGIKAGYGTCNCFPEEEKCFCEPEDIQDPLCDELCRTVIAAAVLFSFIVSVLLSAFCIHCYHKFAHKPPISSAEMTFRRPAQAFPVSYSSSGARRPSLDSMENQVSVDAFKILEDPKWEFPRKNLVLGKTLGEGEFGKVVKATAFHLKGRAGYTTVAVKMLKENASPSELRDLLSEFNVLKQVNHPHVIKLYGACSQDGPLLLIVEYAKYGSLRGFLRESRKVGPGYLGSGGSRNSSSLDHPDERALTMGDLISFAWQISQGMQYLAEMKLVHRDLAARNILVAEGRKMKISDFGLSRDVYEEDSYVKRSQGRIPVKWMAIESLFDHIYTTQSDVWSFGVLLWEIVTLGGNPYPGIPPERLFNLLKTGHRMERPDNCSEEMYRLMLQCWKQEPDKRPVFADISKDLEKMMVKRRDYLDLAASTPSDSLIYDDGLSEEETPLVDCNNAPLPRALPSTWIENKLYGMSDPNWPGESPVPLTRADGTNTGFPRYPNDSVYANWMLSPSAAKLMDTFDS
# T11 sequence (Q15759 whole entry): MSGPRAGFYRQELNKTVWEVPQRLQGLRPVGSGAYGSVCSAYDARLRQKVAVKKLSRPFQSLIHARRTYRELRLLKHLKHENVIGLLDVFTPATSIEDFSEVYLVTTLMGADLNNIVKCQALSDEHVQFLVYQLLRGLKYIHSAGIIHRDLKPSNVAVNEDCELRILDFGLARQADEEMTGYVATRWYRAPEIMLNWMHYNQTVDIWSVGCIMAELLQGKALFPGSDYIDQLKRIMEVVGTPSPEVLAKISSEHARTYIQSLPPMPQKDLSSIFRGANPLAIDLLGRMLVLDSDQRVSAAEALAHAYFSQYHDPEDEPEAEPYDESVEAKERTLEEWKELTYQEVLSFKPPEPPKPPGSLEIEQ
# T16 sequence (P36888 27-993): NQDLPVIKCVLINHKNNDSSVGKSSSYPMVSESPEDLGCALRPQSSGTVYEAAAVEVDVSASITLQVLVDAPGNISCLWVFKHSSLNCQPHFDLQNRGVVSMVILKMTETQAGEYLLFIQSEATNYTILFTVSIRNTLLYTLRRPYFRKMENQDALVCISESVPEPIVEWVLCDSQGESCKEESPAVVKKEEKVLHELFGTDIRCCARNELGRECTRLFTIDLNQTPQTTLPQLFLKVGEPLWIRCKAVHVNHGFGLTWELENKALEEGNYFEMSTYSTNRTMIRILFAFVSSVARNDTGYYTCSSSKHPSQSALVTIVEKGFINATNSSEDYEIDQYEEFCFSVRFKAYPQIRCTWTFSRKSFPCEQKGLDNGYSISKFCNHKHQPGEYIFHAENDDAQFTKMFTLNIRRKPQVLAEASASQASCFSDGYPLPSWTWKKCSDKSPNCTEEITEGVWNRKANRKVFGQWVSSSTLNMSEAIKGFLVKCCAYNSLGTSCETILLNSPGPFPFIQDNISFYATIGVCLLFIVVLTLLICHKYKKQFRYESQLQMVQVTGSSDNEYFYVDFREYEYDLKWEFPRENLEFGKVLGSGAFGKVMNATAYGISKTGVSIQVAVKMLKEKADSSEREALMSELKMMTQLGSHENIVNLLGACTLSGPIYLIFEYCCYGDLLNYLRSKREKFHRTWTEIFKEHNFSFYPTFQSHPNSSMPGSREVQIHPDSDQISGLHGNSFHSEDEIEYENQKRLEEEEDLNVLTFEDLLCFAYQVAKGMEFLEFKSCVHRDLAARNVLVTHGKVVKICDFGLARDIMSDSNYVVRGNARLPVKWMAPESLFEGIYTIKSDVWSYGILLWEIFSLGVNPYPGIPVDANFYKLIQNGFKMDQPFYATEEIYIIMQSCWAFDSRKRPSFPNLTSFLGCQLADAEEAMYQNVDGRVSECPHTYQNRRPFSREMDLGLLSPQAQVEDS
structure (smiles),measurement,setting,value
"CCN1CCN(c2ccc(Nc3ncnc(N(C)C(=O)Nc4c(Cl)c(OC)c(Cl)c(OC)c4Cl)n3)cc2)CC1 [MPT0L145, 1-(4-((4-(4-ethylpiperazin-1-yl)phenyl)amino)-1,3,5-triazin-2-yl)-1-methyl-3-(2,4,6-trichloro-3,5-dimethoxyphenyl)urea]",Tumor growth inhibition (%),RT-112 tumor xenografts; 5 mg/kg/d,61.4%
same,Tumor growth inhibition (%),RT-112 tumor xenografts; 10 mg/kg/d,74.6%
same,tumor growth,"RT-112 tumor xenografts; 5 and 10 mg/kg/d i.p., dose-dependent",significantly suppressed tumor growth
same,accumulation of the sub-G1 phase (apoptotic cell death),RT-112 cells,did not promote accumulation of the sub-G1 phase
same,Kd,PIM3,> 10 µM
same,Kd,TGFBR1,> 10 µM
same,Kd,ZAP70,> 10 µM
same,Kd,CSF1R,0.34 µM
same,Kd,RET,> 10 µM
same,Kd,MET,> 10 µM
same,Kd,EPHA2,> 10 µM
same,Kd,IGF1R,> 10 µM
same,Kd,PDPK1,> 10 µM
same,Kd,AKT1,> 10 µM
same,Kd,p38-beta,> 10 µM
same,Kd,MEK2,> 10 µM
same,Kd,MKNK2,> 10 µM
same,Kd,DCAMKL1,> 10 µM
same,Kd,BMPR2,> 10 µM
same,Kd,FLT3,1.3 µM
same,Kd,BTK,> 10 µM
same,Kd,PIM1,> 10 µM
same,Kd,CDK9,> 10 µM
same,Kd,AXL,> 10 µM
same,Kd,AURKB,> 10 µM
same,"sensitivity of FGFR3-TACC3 fusion cells (RT-112, RT4) versus normal FGFR3 status (T24)",[1],more sensitive
